Laboratory results as given in patent US9234002B2, “Small peptide specific for lung cancer and application thereof” (Guangzhou Peptide Medical Technology Co., Ltd., priority 2012, dated 2016).

Columns and labels:
[1] = tested on: NCI-H1975 (adenocarcinoma) and L78 (squamous carcinoma); assay: Median survival of lung cancer bearing nude mice after treatment; format: in vivo, human; details: tumor bearing nude mice, tail vein injection
Method: Two human lung cancer cell lines comprising NCI-H1975 (adenocarcinoma) and L78 (squamous carcinoma) were maintained in RPMI 1640 (GIBCO, Mississauga, Canada) supplemented with 10% heat-inactivated calf serum (HyClone, Logan, Utah) and L-glutamine (Beyotime, Jiangsu, China) in an incubator at 37° C. with 5% CO2. Cells were harvested with trypsin/EDTA, washed with PAS twice and re-suspended in free serum culture medium at a concentration of 5×10^6 cells/mL. The suspended cells (0.2 mL) were inoculated s.c. into the back of nude mice to establish the lung cancer models, respectively. There are twelve nude mice in each group of cancer model. Tumor growth and general states such as mental, diet and weight were monitored periodically. When tumors reached approximately 1 cm in mean diameter, the tumor bearing mice were used in therapeutic efficacy studies.
The tumor size was measured two dimensionally on days 3, 6, 9, 12, 15, 18, 21, 24, 27 and 30 after injection, while mice weight was also determined. The tumor volume was calculated by the formula volume V=(4/3)×π×R1×R2, where R1 is radius 1 and R2 is radius 2 and R1<R2. Growth curves of the tumors were constructed according to these tumor volumes.

[2] = Toxicity of radiotherapeutic agent in mice bearing lung cancer cells (hematology, serum biochemistry, histopathology); format: in vivo
Method: After treatment with radiotherapeutic agent for three weeks, the mice were sacrificed and the major tissues or organs such as blood, liver, kidneys, heart, lungs and spleen were removed completely. A routine blood test was performed using an automatic hematology analyzer to measure the following parameters: white blood cell (WBC), red blood cell (RBC) and platelet (PLT) count. Clinical biochemicals parameters measured with an automated biochemical analyzer were aspartate transferase (AST), alanine transferase (ALT), blood urea nitrogen (BUN) and creatinine (CRE). Histopathological and ultrastructural observations were performed on the preserved organs and tissues stated above.

[3] = mice bearing lung cancer (24 h)

**Q.** With `[131I-].[Na+]` [^131I, iodine-131] as the compound, how does the median survival time [1] read?
**A.** Its median survival time is 42 days.

**Q.** And the ALT [2, 3]?
**A.** The ALT was 60.7 ± 7.8 U/L.

**Q.** And the AST [2, 3]?
**A.** The AST was 171.7 ± 0.8 U/L.

**Q.** What about the BUN [2, 3] of the same compound?
**A.** Its BUN is 9.4 ± 1.3 mmol/L.

**Q.** What about the CRE [2, 3] of the same compound?
**A.** The CRE was 42.7 ± 3.8 µmol/L.

**Q.** And the PLT [2, 3]?
**A.** The PLT was 991.2 ± 52.5 G/L.

**Q.** And the RBC [2, 3]?
**A.** The RBC was 7.8 ± 0.2 T/L.

**Q.** What about the WBC [2, 3] of the same compound?
**A.** The WBC was 13.6 ± 0.7 G/L.

**Q.** And the “leukocyte count versus control” value ([2]; mice bearing lung cancer cells)?
**A.** The value was “decrease”.
